We go through three molecules from patent US20100160425A1, “ANTI-ALLERGIC AGENT AND BEVERAGE/FOOD, PREPARATION FOR EXTERNAL APPLICATION OR COSMETIC COMPRISING THE AGENT” (priority 2006, published 2010).

For the assay, the system named is mouse bone marrow-derived cultured mast cells (BMMC). The experiment in a line: Inhibition of histamine release from IgE-sensitized, DNP-HSA-stimulated mouse mast cells. The assay is classed as cell-based. The settings on record: for Ratio of Histamine Release Inhibiting Effect %: sample at 10 μg/ml, relative to distilled water control. As to the method:
In order to determine the anti-allergic activity (type I allergy), inhibitory activity on the release of histamine from mouse mast cells was used as an indicator. The histamine release inhibitory effect was investigated by using mouse bone marrow-derived cultured mast cells (BMMC). The cells were cultured in a RPMI1640 medium supplemented with 10% heat inactivated FBS (fetal bovine serum), 3 ng/ml of interleukin-3 (IL-3), 5 mM […], and 50 μM 2-mercaptoethanol. The cells (1×10^7 cells/ml) were sensitized anti-DNP mouse IgE antibody overnight, then, on the following day, suspended in a Tyrode solution and incubated with the test samples for 10 minutes, degranulation was induced by adding DNP-HSA (antigen) (20 minutes), and the amount of histamine in the supernatant fluid was determined using liquid chromatography. An LC-10A (manufactured by Shimadzu Corporation) was used as the measuring instrument, and […] was used as the column. Isocratic analysis was conducted under the following conditions: flow rate of 0.5 ml/min; injection amount of 20 μl; temperature of the column oven of 37° C.; detector RF ([…], em. 430 nm). The anti-allergic activity was determined to be high when the relative value to distilled water, which was a control, was lower.

Regarding `COc1cc(C(=O)O[C@@H]2Cc3c(O)cc(O)cc3O[C@@H]2c2ccc(O)c(O)c2)cc(O)c1O` [ECG3″Me, epictechin-3-O-(3-O-methyl)gallate], the “Ratio of Histamine Release Inhibiting Effect %” value is given as 46.79%. The anti-allergic activity result (among the compounds of general formula (1), summary statement) is given as “especially strong anti-allergic activity”. Moreover, under “beverages containing 2 μg/ml and 10 μg/ml, FIG. 2”, the “histamine release inhibiting effect relative to that of EGCG3″Me” value was “approximately 1.5 times”. The “histamine release inhibiting effect when added to Yabukita hot-water extract” value (final additive concentration 0.1 to 50 μg/ml in Yabukita hot-water extract, FIG. 4) is reported as “can increase the anti-allergic activity more than EGCG3″Me”.

Consider “epigallocatechin-3-O-gallate [EGCG, reference compound]”, for which the “Ratio of Histamine Release Inhibiting Effect %” value came out at 7.63%.

“epigallocatechin-3-O-(3-O-methyl)gallate [EGCG3″Me, reference compound]”: the “Ratio of Histamine Release Inhibiting Effect %” value worked out at 29.6%.
